# Columns and labels:
# Assay in all cases: relative viability (nuclei count vs DMSO), 5 days (fraction); higher = more cells survive
# NCI-H838 = system: NCI-H838
# Procedure, shortened: (§1)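 The day after seeding in 1536-well plates, lung cancer cell lines were treated by pin tool with a single drug, or with a fixed anchor-drug dose together with five library-drug doses (not always all listed) in √10 steps. After 5 days, a combined fix-and-stain solution (final 0.05% Triton X-100, 1% formaldehyde, 1 ug/ml Hoechst) was added. Nuclei counted on 4× images gave relative viability as treated counts over vehicle counts, reported as the median of duplicate plates.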
# ChaGo-K-1 = system: ChaGo-K-1
# Procedure, shortened: as §1
# HOP-62 = system: HOP-62
# Procedure, shortened: as §1
# SK-LU-1 = system: SK-LU-1
# Procedure, shortened: as §1
# NCI-H2023 = system: NCI-H2023
# Procedure, shortened: as §1
# NCI-H1793 = system: NCI-H1793
# Procedure, shortened: as §1
# NCI-H1944 = system: NCI-H1944
# Procedure, shortened: as §1
# NCI-H2405 = system: NCI-H2405
# Procedure, shortened: as §1
# HCC-15 = system: HCC-15
# Procedure, shortened: as §1
# NCI-H2228 = system: NCI-H2228
# Procedure, shortened: as §1
# ABC-1 = system: ABC-1
# Procedure, shortened: as §1
# HARA = system: HARA
# Procedure, shortened: as §1
# NCI-H1993 = system: NCI-H1993
# Procedure, shortened: as §1
# EMC-BAC-2 = system: EMC-BAC-2
# Procedure, shortened: as §1
# NCI-H23 = system: NCI-H23
# Procedure, shortened: as §1
# COR-L23 = system: COR-L23
# Procedure, shortened: as §1
# NCI-H2126 = system: NCI-H2126
# Procedure, shortened: as §1
# NCI-H358 = system: NCI-H358
# Procedure, shortened: as §1
# NCI-H1395 = system: NCI-H1395
# Procedure, shortened: as §1
# LC-2-ad = system: LC-2-ad
# Procedure, shortened: as §1
smiles,measurement,setting,value
Nc1ccn([C@@H]2O[C@H](CO)[C@@H](O)[C@@H]2O)c(=O)n1 [Cytarabine] + CCNC(=O)c1noc(-c2cc(C(C)C)c(O)cc2O)c1-c1ccc(CN2CCOCC2)cc1 [Luminespib] (partner 0.01 µM),relative viability,NCI-H838; first compound 0.005 µM,0.234
same,relative viability,NCI-H838; first compound 0.01581 µM,0.3
same,relative viability,NCI-H838; first compound 0.05 µM,0.303
same,relative viability,NCI-H838; first compound 0.1581 µM,0.186
same,relative viability,NCI-H838; first compound 0.5 µM,0.167
same,relative viability,ChaGo-K-1; first compound 0.005 µM,0.649
same,relative viability,ChaGo-K-1; first compound 0.01581 µM,0.43
same,relative viability,ChaGo-K-1; first compound 0.05 µM,0.263
same,relative viability,ChaGo-K-1; first compound 0.1581 µM,0.206
same,relative viability,ChaGo-K-1; first compound 0.5 µM,0.188
same,relative viability,HOP-62; first compound 0.005 µM,0.679
same,relative viability,HOP-62; first compound 0.01581 µM,0.49
same,relative viability,HOP-62; first compound 0.05 µM,0.285
same,relative viability,HOP-62; first compound 0.1581 µM,0.135
same,relative viability,HOP-62; first compound 0.5 µM,0.135
same,relative viability,SK-LU-1; first compound 0.005 µM,0.178
same,relative viability,SK-LU-1; first compound 0.01581 µM,0.183
same,relative viability,SK-LU-1; first compound 0.05 µM,0.214
same,relative viability,SK-LU-1; first compound 0.1581 µM,0.185
same,relative viability,SK-LU-1; first compound 0.5 µM,0.185
same,relative viability,NCI-H2023; first compound 0.005 µM,0.604
same,relative viability,NCI-H2023; first compound 0.01581 µM,0.235
same,relative viability,NCI-H2023; first compound 0.05 µM,0.19
same,relative viability,NCI-H2023; first compound 0.1581 µM,0.0889
same,relative viability,NCI-H2023; first compound 0.5 µM,0.0897
same,relative viability,NCI-H1793; first compound 0.005 µM,0.201
same,relative viability,NCI-H1793; first compound 0.01581 µM,0.186
same,relative viability,NCI-H1793; first compound 0.05 µM,0.232
same,relative viability,NCI-H1793; first compound 0.1581 µM,0.184
same,relative viability,NCI-H1793; first compound 0.5 µM,0.155
same,relative viability,NCI-H1944; first compound 0.005 µM,0.619
same,relative viability,NCI-H1944; first compound 0.01581 µM,0.343
same,relative viability,NCI-H1944; first compound 0.05 µM,0.264
same,relative viability,NCI-H1944; first compound 0.1581 µM,0.185
same,relative viability,NCI-H1944; first compound 0.5 µM,0.134
same,relative viability,NCI-H2405; first compound 0.005 µM,0.64
same,relative viability,NCI-H2405; first compound 0.01581 µM,0.547
same,relative viability,NCI-H2405; first compound 0.05 µM,0.553
same,relative viability,NCI-H2405; first compound 0.1581 µM,0.369
same,relative viability,NCI-H2405; first compound 0.5 µM,0.318
same,relative viability,HCC-15; first compound 0.005 µM,0.328
same,relative viability,HCC-15; first compound 0.01581 µM,0.416
same,relative viability,HCC-15; first compound 0.05 µM,0.354
same,relative viability,HCC-15; first compound 0.1581 µM,0.428
same,relative viability,HCC-15; first compound 0.5 µM,0.267
same,relative viability,NCI-H2228; first compound 0.005 µM,0.141
same,relative viability,NCI-H2228; first compound 0.01581 µM,0.121
same,relative viability,NCI-H2228; first compound 0.05 µM,0.141
same,relative viability,NCI-H2228; first compound 0.1581 µM,0.116
same,relative viability,NCI-H2228; first compound 0.5 µM,0.12
same,relative viability,ABC-1; first compound 0.005 µM,0.732
same,relative viability,ABC-1; first compound 0.01581 µM,0.624
same,relative viability,ABC-1; first compound 0.05 µM,0.712
same,relative viability,ABC-1; first compound 0.1581 µM,0.381
same,relative viability,ABC-1; first compound 0.5 µM,0.281
same,relative viability,HARA; first compound 0.005 µM,0.898
same,relative viability,HARA; first compound 0.01581 µM,0.303
same,relative viability,HARA; first compound 0.05 µM,0.27
same,relative viability,HARA; first compound 0.1581 µM,0.1
same,relative viability,HARA; first compound 0.5 µM,0.0906
same,relative viability,NCI-H1993; first compound 0.005 µM,0.964
same,relative viability,NCI-H1993; first compound 0.01581 µM,0.706
same,relative viability,NCI-H1993; first compound 0.05 µM,0.695
same,relative viability,NCI-H1993; first compound 0.1581 µM,0.512
same,relative viability,NCI-H1993; first compound 0.5 µM,0.525
same,relative viability,EMC-BAC-2; first compound 0.005 µM,0.885
same,relative viability,EMC-BAC-2; first compound 0.01581 µM,0.742
same,relative viability,EMC-BAC-2; first compound 0.05 µM,0.346
same,relative viability,EMC-BAC-2; first compound 0.1581 µM,0.259
same,relative viability,EMC-BAC-2; first compound 0.5 µM,0.244
same,relative viability,NCI-H23; first compound 0.005 µM,0.179
same,relative viability,NCI-H23; first compound 0.01581 µM,0.192
same,relative viability,NCI-H23; first compound 0.05 µM,0.197
same,relative viability,NCI-H23; first compound 0.1581 µM,0.199
same,relative viability,NCI-H23; first compound 0.5 µM,0.188
same,relative viability,COR-L23; first compound 0.005 µM,0.481
same,relative viability,COR-L23; first compound 0.01581 µM,0.789
same,relative viability,COR-L23; first compound 0.05 µM,0.628
same,relative viability,COR-L23; first compound 0.1581 µM,0.257
same,relative viability,COR-L23; first compound 0.5 µM,0.163
same,relative viability,NCI-H2126; first compound 0.005 µM,0.789
same,relative viability,NCI-H2126; first compound 0.01581 µM,0.86
same,relative viability,NCI-H2126; first compound 0.05 µM,0.671
same,relative viability,NCI-H2126; first compound 0.1581 µM,0.53
same,relative viability,NCI-H2126; first compound 0.5 µM,0.427
same,relative viability,NCI-H358; first compound 0.005 µM,0.338
same,relative viability,NCI-H358; first compound 0.01581 µM,0.582
same,relative viability,NCI-H358; first compound 0.05 µM,0.34
same,relative viability,NCI-H358; first compound 0.1581 µM,0.144
same,relative viability,NCI-H358; first compound 0.5 µM,0.181
same,relative viability,NCI-H1395; first compound 0.005 µM,0.544
same,relative viability,NCI-H1395; first compound 0.01581 µM,0.61
same,relative viability,NCI-H1395; first compound 0.05 µM,0.437
same,relative viability,NCI-H1395; first compound 0.1581 µM,0.366
same,relative viability,NCI-H1395; first compound 0.5 µM,0.346
same,relative viability,LC-2-ad; first compound 0.005 µM,0.892
same,relative viability,LC-2-ad; first compound 0.01581 µM,0.994
same,relative viability,LC-2-ad; first compound 0.05 µM,0.768
same,relative viability,LC-2-ad; first compound 0.1581 µM,0.636
same,relative viability,LC-2-ad; first compound 0.5 µM,0.478

# Reference: the supplement of paper PMC10307832
